Test results as given in ChEMBL document CHEMBL2073911, “Sensitivity of bile acid transport by organic anion-transporting polypeptides to intracellular pH” (Biochim Biophys Acta, 2003).

Target: T1, Solute carrier organic anion transporter family member 1A1 (Rattus norvegicus, UniProt P46720)
T1 sequence (P46720 whole entry): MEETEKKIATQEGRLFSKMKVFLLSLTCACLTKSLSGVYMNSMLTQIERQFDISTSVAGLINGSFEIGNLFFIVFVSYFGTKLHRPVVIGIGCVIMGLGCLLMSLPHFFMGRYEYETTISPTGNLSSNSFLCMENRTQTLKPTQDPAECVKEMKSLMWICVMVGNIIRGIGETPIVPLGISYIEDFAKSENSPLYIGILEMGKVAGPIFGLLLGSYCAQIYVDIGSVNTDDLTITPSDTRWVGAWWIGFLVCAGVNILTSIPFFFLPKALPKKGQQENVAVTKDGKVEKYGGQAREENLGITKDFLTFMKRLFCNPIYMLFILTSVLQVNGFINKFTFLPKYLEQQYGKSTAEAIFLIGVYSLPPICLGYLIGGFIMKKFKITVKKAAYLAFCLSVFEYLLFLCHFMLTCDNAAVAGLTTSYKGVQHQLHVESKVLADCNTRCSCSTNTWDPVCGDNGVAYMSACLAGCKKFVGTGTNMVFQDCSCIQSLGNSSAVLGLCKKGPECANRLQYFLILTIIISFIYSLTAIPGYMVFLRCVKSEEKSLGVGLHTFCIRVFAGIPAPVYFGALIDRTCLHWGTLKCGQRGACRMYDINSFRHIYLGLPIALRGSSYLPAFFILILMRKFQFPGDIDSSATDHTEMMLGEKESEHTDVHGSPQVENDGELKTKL
Assay: TP_TRANSPORTER: uptake in Oatp1-expressing CHO-03 cell
Format: functional, cell-based
Conditions: hamster

C[C@H](CCC(=O)NCC(=O)O)[C@H]1CC[C@H]2[C@@H]3[C@H](O)C[C@@H]4C[C@H](O)CC[C@]4(C)[C@H]3C[C@H](O)[C@]12C [GLYCOCHOLIC ACID]
Activity: substrate [+]
